From publication PMC6692352, “DF2726A, a new IL-8 signalling inhibitor, is able to counteract chemotherapy-induced neuropathic pain” (Scientific Reports, 2019)

How the values were obtained:
[1] = system: CXCL1-induced hPMN chemotaxis; assay: CXCL1-induced hPMN chemotaxis, 48-well microchemotaxis chamber; assay type: cell-based, human; details: hPMN pre-incubated 15 min at 37°C, migration 45 min
From the text: (§1) chemotherapy-induced neuropathic pain”
(§2) Benedetti, Antonio Giordano, Annamaria Cimini, Marcello Allegretti.
(§3) Chemokines were from PeproTech (London, UK). Chemicals and cell culture reagents were from Sigma Aldrich (Saint Louis, MI, USA).
(§4) Cell isolation and culture
(§5) L’Aquila, Italy. Ethical clearance was obtained to perform these experiments. Human PMNs were […]
(§6) blood cells as previously described 1.
(§7) Cell viability, as measured by Trypan Blue dye exclusion, was greater than 98%. […]
(§8) microchemotaxis chamber, as previously described 2. Briefly, 25 µl of control medium (PBS for […]
(§9) the lower compartment of the chemotaxis chamber. […]
(§10) vehicle were seeded in the upper compartment. The two compartments were separated by 5 µm pre-size polycarbonate filter (polyvinylpyrrolidone-free for PMN chemotaxis). The chamber was […]
(§11) Physicochemical characterization […]
(§12) and a turbidity-sensing device. […]
(§13) water/HBSS to a final concentration of 10 μM. Cell membrane homogenates (48 μg protein) were […]

[2] = system: spontaneous human polimorphonuclear neutrophil (hPMN) migration; assay: Spontaneous hPMN migration; assay type: cell-based
From the text: as §1, §2, §3, §4, §5, §6, §7, §8, §9, §10, §11, §12, §13

[3] = Aqueous solubility (SiriusT3); assay type: physicochemical
Experimental: as §10, §11, §12, §13

[4] = target: T1, P-glycoprotein (P-gp) (Homo sapiens, UniProt P08183); assay: P-gp inhibition (Caco-2 cell assay); assay type: in vitro ADME
T1 construct: endogenous in cells; host or cells: Caco-2
T1 sequence (P08183 whole entry): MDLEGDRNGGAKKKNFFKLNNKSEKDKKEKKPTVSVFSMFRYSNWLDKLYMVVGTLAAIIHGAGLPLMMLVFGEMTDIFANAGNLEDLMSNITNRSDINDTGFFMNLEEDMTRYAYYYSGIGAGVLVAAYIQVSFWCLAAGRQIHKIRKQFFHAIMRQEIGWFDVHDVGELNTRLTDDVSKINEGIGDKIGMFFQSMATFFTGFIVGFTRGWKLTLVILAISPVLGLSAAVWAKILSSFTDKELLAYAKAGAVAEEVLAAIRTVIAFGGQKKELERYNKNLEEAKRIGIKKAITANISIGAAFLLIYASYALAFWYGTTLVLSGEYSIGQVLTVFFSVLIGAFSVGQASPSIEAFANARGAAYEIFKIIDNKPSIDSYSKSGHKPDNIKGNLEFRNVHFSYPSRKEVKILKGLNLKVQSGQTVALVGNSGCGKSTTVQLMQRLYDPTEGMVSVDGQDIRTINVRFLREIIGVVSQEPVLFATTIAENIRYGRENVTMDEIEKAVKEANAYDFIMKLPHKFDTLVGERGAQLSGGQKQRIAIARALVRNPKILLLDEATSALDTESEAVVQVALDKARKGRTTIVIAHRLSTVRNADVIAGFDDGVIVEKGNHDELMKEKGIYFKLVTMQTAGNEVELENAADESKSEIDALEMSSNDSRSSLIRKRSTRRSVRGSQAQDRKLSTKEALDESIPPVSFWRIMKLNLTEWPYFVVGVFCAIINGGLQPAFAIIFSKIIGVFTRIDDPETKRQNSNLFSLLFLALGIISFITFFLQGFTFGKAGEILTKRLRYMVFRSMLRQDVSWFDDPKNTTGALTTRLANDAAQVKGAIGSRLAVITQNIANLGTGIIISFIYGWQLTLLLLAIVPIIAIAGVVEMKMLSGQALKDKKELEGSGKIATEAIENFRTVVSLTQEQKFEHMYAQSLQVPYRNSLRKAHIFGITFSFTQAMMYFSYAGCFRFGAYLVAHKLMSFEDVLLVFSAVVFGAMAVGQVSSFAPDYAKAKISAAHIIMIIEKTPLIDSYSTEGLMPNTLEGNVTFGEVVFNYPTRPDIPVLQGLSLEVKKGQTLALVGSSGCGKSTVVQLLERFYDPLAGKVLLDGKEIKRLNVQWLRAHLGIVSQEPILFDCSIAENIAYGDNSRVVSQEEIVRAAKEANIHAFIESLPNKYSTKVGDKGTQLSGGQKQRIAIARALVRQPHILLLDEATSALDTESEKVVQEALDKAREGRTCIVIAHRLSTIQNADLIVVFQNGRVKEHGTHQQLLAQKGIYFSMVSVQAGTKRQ

[5] = target: T2, hERG channel (Homo sapiens, UniProt Q12809); assay: hERG inhibition, automated patch clamp (QPatch 16) in CHO-K1 cells; assay type: cell-based; details: tested at 0.01-1 mM
T2 construct: host or cells: CHO-K1
T2 sequence (Q12809 whole entry): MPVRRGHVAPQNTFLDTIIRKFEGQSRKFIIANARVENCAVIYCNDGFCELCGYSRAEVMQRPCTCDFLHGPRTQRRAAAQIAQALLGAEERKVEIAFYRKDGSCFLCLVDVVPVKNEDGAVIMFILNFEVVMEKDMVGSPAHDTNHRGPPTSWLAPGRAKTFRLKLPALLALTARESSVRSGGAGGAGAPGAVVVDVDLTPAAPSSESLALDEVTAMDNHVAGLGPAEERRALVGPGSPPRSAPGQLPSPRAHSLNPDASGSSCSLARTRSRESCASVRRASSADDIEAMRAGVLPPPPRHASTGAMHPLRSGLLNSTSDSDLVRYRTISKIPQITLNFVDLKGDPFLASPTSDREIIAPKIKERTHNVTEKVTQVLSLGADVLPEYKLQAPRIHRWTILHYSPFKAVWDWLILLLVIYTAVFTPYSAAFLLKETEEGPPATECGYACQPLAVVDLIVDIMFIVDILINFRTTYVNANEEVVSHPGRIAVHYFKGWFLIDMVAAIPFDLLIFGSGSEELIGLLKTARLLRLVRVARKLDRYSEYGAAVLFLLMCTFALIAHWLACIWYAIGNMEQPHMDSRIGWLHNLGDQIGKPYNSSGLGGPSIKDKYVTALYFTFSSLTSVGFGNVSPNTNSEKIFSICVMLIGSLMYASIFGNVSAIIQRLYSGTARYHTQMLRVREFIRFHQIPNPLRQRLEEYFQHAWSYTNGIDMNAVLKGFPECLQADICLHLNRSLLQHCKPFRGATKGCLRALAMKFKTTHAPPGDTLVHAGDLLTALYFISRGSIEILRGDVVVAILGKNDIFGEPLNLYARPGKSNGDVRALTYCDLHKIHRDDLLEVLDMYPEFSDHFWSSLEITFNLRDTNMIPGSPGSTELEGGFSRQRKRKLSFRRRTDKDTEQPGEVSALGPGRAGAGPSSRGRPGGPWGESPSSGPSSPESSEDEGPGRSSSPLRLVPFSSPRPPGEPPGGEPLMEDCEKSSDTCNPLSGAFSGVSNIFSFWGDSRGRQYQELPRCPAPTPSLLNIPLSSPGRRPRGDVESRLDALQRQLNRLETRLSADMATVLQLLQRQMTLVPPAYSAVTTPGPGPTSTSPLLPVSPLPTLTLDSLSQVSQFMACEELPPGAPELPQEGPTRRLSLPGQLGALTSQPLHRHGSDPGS
Experimental: mM Tris-HCl (pH 8.0), 1.98 mM phenol and 1.02 µM hematine. Thereafter, the reaction was initiated by adding 4 µM (COX1) or 2 µM (COX2) of arachidonic acid and the mixture was incubated for 5 min at RT. For basal control measurements, arachidonic acid was omitted from the reaction mixture. Following incubation, t he reaction was stopped by the addition of 1 M HCl then 1 M Tris/HCl (pH 8.0) followed by cooling to 4°C.
The fluorescence acceptor (d2 labeled PGE2) and the fluorescence donor (anti -PGE2 antibody labeled with europium Cryptate) were then added. After 120 min, the fluorescence transfer corresponding to the amount of residual PGE2 was measured at λex=337 nm, λem=620 nm and λem=665 nm using a microplate reader (Envision, Perkin Elmer). The enzyme activity was determined by dividing the signal measured at 665 nm by that measured at 620 nm (ratio). The results were expressed as a percent age inhibition of the control enzyme activity. The standard inhibitory reference compound was Diclofenac, which was tested in each experiment at several concentrations to obtain an inhibition curve from which its IC50 value was calculated. […]
The human ether-a-go-go related gene (hERG) inhibition assay was performed by Eurofins Panlabs Inc, USA. […] Single cell ionic currents were measured in the automated patch clamp configuration at room temperature by using QPatch 16 in strument. […]

[6] = system: p-JAK2; assay: p-JAK2 western blotting in F11-derived neurons; assay type: cell-based; details: 24 h
[7] = system: p-STAT3; assay: p-STAT3 western blotting in F11-derived neurons; assay type: cell-based; details: 24 h
Experimental: (§14) Following neuronal differentiation, neurons were treated for 24 h with DF2726A (1 μM final concentration), oxaliplatin (Sigma-Aldrich; 20 µM final concentration), or the combination of the two molecules.
(§15) Control and treated cells were collected and lysed in ice-cold RIPA buffer (PBS pH 7.4 containing 0.5% sodium deoxycolate, 1% Igepal, 0.1% SDS, 5 mM EDTA, 1% protease and phosphatase inhibitor cocktails; Sigma-Aldrich) as described in[22],[33]. Protein lysates (30 μg) were separated on 8–12% SDS-polyacrilamide gel and electroblotted onto polyvinyldifluoride membrane (PVDF; Sigma-Aldrich). Nonspecific binding sites were blocked by 5% non-fat dry milk (Bio-Rad Laboratories, Hercules, CA, USA) in Tris buffered saline (TBS: 20 mM Tris- HCl, pH 7.4, containing 150 mM NaCl) for 30 min at RT. […] The relative densities of immunoreactive bands were determined and normalized HRP-conjugated β-actin, using ImageJ software. […]

[8] = system: p-ERK1/2; assay: p-ERK1/2 western blotting in F11-derived neurons; assay type: cell-based; details: DF2726A 1 µM + oxaliplatin 20 µM, 24 h
Experimental: as §14, §15

[9] = system: IL-8-induced hPMN chemotaxis; details: read-out: IC50 (CXCL8 / IL-8-induced hPMN chemotaxis); hPMN pre-incubated 15 min at 37°C, migration 45 min
From the text: Human mononuclear cells and PMNs were obtained from buffy coats of heparinized peripheral
blood from adult healthy volunteers courtesy of Centro Trasfusionale, Ospedale S. Salvatore,
prepared to 99% purity by dextran sedimentation followed by hypotonic lysis of contaminating red
blood cells as previously described 1. PMNs were washed once with saline and then resuspended at
1.5 x 10^6/ml in HBSS for migration assay. Cell viability, as measured by Trypan Blue dye exclusion, was greater than 98%.
Migration of human PMNs was evaluated by microchamber technique in a 48-well
monocytes and HBSS for PMNs) or chemoattractant (CXCL1, CXCL8) solutions were seeded in
the lower compartment of the chemotaxis chamber. Fifty µl of cell suspension (1.5 x 10^6/ml) pre-
immersion fields at high magnification (100X; Zeiss microscope) were counted after sample

[10] = system: F11 cells; assay: Cell viability assay in F11 neuronal cells; details: 24 h, 5–20 µM
Experimental: For the subsequent experiments, DF2726A was used at a final concentration of 1 µM, and oxaliplatin at a final concentration of 20 µM. For comparison, paclitaxel alone or in combination with DF2726A was also used.
F11 hybridoma cells (ECACC 08062601), chosen as a model of DRG neurons[22],[32],[33] were cultivated in DMEM (Euroclone, Milan, Italy) supplemented with 10% FBS (Sigma-Aldrich, St. Louis, MO, USA), 1% penicillin/streptomycin (Euroclone, MI, Italy) and 1% glutamine (Euroclone) at 37 °C, in humidified 95% air with 5% CO2 atmosphere. For all the experiments, cells were used at 18th passage.
Supplementary Fig. 2: Effect of DF2726A, oxaliplatin and paclitaxel treatment on neuronal cell
viability. Cell viability assay of F11 cells after treatment at different concentrations of DF 2726A
(DF; 1-20 µM), oxaliplatin (OXA, 5-60 µM), paclitaxel (PAC, 5-20 nM) and the combination of 20
µM oxaliplatin+DF2726A (Oxa+DF) and paclitaxel+DF2726A (PAC+DF) at 24 h. Data are means

[11] = DF2726A 1 µM + oxaliplatin 20 µM

In the case of CC(C)(C(=O)O)c1ccc(Nc2nc(C(F)(F)F)cs2)cc1 [DF2726A], the IC50 [1] is reported as 0.008 µM, the “Inhibition of spontaneous hPMN migration per se” value [2] is reported as “did not inhibit” and the Acqueous solubility [3] is reported as >30 mg/mL. For the same compound, the “P-glycoprotein (P-gp) inhibition” value [4] was “no P-glycoprotein (P-gp) inhibition”, the IC50 [5] was > 1000 µM and the “p-JAK2, oxaliplatin-treated neurons” value [6, 11] was “restored control conditions”. For the same compound, the “p-JAK2, paclitaxel-treated neurons” value ([6]; DF2726A + paclitaxel 10 nM) was “restored control conditions”, the “p-STAT3 levels, oxaliplatin-treated neurons” value [7, 11] was “counteracted this effect” and the “p-STAT3 levels, paclitaxel-treated neurons” value ([7]; DF2726A + paclitaxel 10 nM) was “counteracted this effect”. The “p-ERK1/2 protein levels, oxaliplatin-treated neurons” value [8] was “comparable to those of control cells”, the IC50 [9] was 0.01 ± 0.005 µM and the Neuronal cell viability [10] was “ineffective in modulating neuronal cell viability”.
